Measurements reported in PMC5201116, “Bioactive Flavonoids and Catechols as Hif1 and Nrf2 Protein Stabilizers - Implications for Parkinson’s Disease” (Aging and Disease, 2016).

How the values were obtained:
[1] = system: C57Bl6 mice, MPTP model of Parkinson's disease; experiment: Acute MPTP mouse model: striatal dopamine and metabolites by HPLC; assay type: in vivo
Experimental: Acute MPTP-intoxication paradigm was used to test the neuroprotective effects of NDGA using male C57Bl6 mice. In this protocol, 10-week-old C57Bl6 mice (n = 8-10 per group) were divided into four different groups consisting of 1) a control group treated with saline alone; 2) a group treated with MPTP alone; 3) a group treated with NDGA alone and; 4) group treated with NDGA in combination with MPTP. NDGA was dissolved in 1:4 ethanol:neobee oil (a derivative of coconut oil). MPTP 10 mg/kg free base was administered intraperitoneally three times a day every two hours. Animals with NDGA in combination with MPTP were administered NDGA by oral gavage with 50 and 100mg/kg/day body weight of the drug in 100 microliter volume once a day for 4 days before MPTP and once a day for 3 days after MPTP. On the day of MPTP NDGA was administered to mice 2 hours before the initiation of MPTP. Animals belonging to MPTP and control groups received the vehicle (ethanol:neobee oil, 1:4) whereas the drug alone group received respective doses of NDGA at the same frequency. All animals were sacrificed on the 7th day after MPTP.
Striatal levels of dopamine (DA) and its metabolites 3, 4-dihydroxyphenylacetic acid (DOPAC), and homovanillic acid (HVA) were measured after sonication and centrifugation in chilled 0.1 M perchloric acid (PCA, 100 µl/mg tissue) as previously described. Briefly, 15 µl supernatant was isocratically eluted through an 80 x 4.6 mm C18 column (ESA, Inc. Chelmsford, MA) with a mobile phase containing 0.1 M LiH2PO4, 0.85 mM 1-octanesulfonic acid and 10% (v/v) methanol and detected by a 2-channel Coulochem II electrochemical detector (ESA, Inc. Chelmsford, MA). Concentrations of dopamine, DOPAC and HVA are expressed as ng per mg protein. The protein concentrations of tissue homogenates were measured according to BCA assay (Pierce Biotech). For MPP+ measurement NDGA was administered at a dose of 100mg/kg/day once daily for four days followed by a dose on the 5th day 30 minutes before MPTP (30mg/kg free base). Striatal tissues were sonicated and centrifuged in 0.1 M PCA and an aliquot of supernatant was injected onto a Brownlee aquapore x 03-224 cation exchange column (Rainin, Woburn, MA). Samples were eluted isocratically with 20 mM boric acid-sodium borate buffer, pH 7.75, containing 3 mM tetrabutylammonium hydrogen sulfate, 0.25 mM 1-heptanesulfonic acid and 10% isopropanol. MPP^+ levels were detected with a fluorescence detector set by excitation at 295 nm and emission at 375nm.

[2] = system: HRE-luciferase reporter (HT22 hippocampal cell line); experiment: HRE-luc reporter assay; assay type: cell-based; conditions: Mus musculus, HT-22, 3 h; at 10 µM; read-out: HRE-luc fold activation
[3] = system: HIF1 ODD-luc reporter (SH-SY5Y cell line); experiment: HIF1 ODD-luc reporter assay; assay type: cell-based; conditions: Homo sapiens, SH-SY5Y
[4] = NDGA+MPTP group, NDGA 100mg/kg/day oral, 7th day after MPTP

`CC(Cc1ccc(O)c(O)c1)C(C)Cc1ccc(O)c(O)c1` (centres unmarked) [compound 28, 4,4'-(2,3-dimethylbutane-1,4-diyl)dibenzene-1,2-diol] was tested, and the “protection against MPTP-induced loss of striatal dopamine, DOPAC and HVA” value ([1]; NDGA 50mg/kg/day) was “not”, the “protection against MPTP-induced loss of striatal dopamine, DOPAC and HVA” value ([1]; NDGA 100mg/kg/day) was “protected” and the “Striatal DOPAC” value ([1]; NDGA alone group, oral gavage) was 7.59 ± 1.35 ng/mg protein. For the same compound, the “Striatal DOPAMINE” value ([1]; NDGA alone group, oral gavage) was 88.4 ± 6.2 ng/mg protein, the “Striatal HVA” value ([1]; NDGA alone group, oral gavage) was 7.5 ± 1.66 ng/mg protein and the “Striatal DOPAC” value [1, 4] was 6.04 ± 1.14 ng/mg protein. The “Striatal DOPAMINE” value [1, 4] was 55.3 ± 5.7 ng/mg protein, the “Striatal HVA” value [1, 4] was 7.4 ± 0.96 ng/mg protein and the fold induction at 10 µM [2] was 2 ± 0.2. It also gave an EC50 [3] of roughly 2000 nM and a fold induction at 10 µM ([3]; 3 h, at 10 µM, 3 h incubation, read-out: ODD-luc fold activation) of 2.
